{
  "source": "patent US12268671B2",
  "about": "“IL-8 inhibitors for use in the treatment of chemotherapy-induced peripheral neuropathy” (DOMPÉ FARMACEUTICI S.P.A., priority 2016, dated 2025)",
  "key": {"F-11 cell line": {"test_system": "F-11 cell line", "assay": "Paclitaxel-induced cytoskeleton modifications, immunofluorescence in differentiated F11 neurons", "format": "cell-based, mouse/rat", "settings": "24 hours", "procedure": "In this study, the effects of paclitaxel, administered alone or in combination with reparixin (DF1681Y; R-(−)-2-(4-isobutylphenyl)propionyl methanesulfonamide) dissolved in aqueous solution of lysine to form the in situ salt, on the cytoskeleton components and organization was performed. As experimental model, a F-11 cell line, a fusion product of mouse neuroblastoma cell line N18TG-2 cells with embryonic rat dorsal root ganglia sensory neurons, was used. These cells were selected because of the presence of neuronal markers and properties that are unique to the parental rat sensory neurons.\nF11 (ECACC, Salisbury, UK) cells were cultivated DMEM (Euroclone, MI, Italy) medium supplemented with 10% FBS, USA origin, (Sigma-Aldrich St. Louis, CO, USA), 1% penicillin/streptomycin (Euroclone) and 1% glutamine (Euroclone). After, cells were differentiated with mouse NGF (mNGF) dissolved in DMEM with 1% penicillin/streptomycin and 1% glutamine (FBS free) at the final concentration 50 ng/ml. Medium was replaced every 3 days until complete differentiation, occurred after 7 days. Neurons were not treated (controls) or treated for 24 hours with reparixin [10 μM final concentration], paclitaxel (Sigma-Aldrich) [10 nM final concentration] and the combination of the two molecules.\nCells were fixed in paraformaldehyde 4% in PBS for 20 min at RT and permeabilized in methanol for 5 min at −20° C. Cells were then blocked with PBS containing 4% BSA for 30 min and incubated with primary antibodies diluted in the blocking solution overnight at 4° C.: rabbit β-tubulin (Abcam, Cambridge, UK) 1:500; mouse α-tubulin (Abcam) 1:200 and mouse α-tubulin acetylated (Abcam) 1:1000. Cells were then rinsed in PBS several times before incubation with secondary antibodies, goat anti rabbit conjugated with Alexafluor 633 (1:2000), and goat anti mouse conjugated with Alexafluor 488 (1:2000), (Life Technologies, CA, USA) for 30 min at RT. After extensive washing coverslips were mounted with Vectashield mounting medium with DAPI (Vector Laboratories Burlingame, CA, USA) and then observed at confocal laser microscope."}, "Male Wistar rats [1]": {"test_system": "Male Wistar rats", "assay": "Paclitaxel-induced mechanical allodynia (Dynamic Plantar Aesthesiometer)", "format": "in vivo, rat", "settings": "paclitaxel model", "procedure": "(§1) Male Wistar rats (200-250 g, Harlan Italy) were housed in a room with controlled temperature (22±1° C.), humidity (60±10%) and light (12 h per day); food and water were available ad libitum.\n(§2) The rats received: • 1—four once a day intraperitoneal (i.p.) injections of either paclitaxel (Tocris, Italy) (2 mg/kg/day i.p.; cumulative dose of 8 mg/kg i.p.) or vehicle (saline, 1 ml/kg/day i.p.), administered on alternate days (days 0, 2, 4, and 6), as described in Polomano et al, Pain 2001, 94:293-294. Behavioral testing was performed prior to paclitaxel/vehicle administration (day-1), and again on days 5-7-10-14 following paclitaxel/vehicle injection; • or • 2—oxaliplatin (2.4 mg/kg) dissolved in 5% glucose solution which was administered intraperitoneally (i.p.) at a volume of 0.5 mL/rat, for 5 consecutive days every week for 3 weeks, as described in Cavaletti et al., Eur. J. Cancer, 2001 37, 2457-63. Behavioral testing was performed before oxaliplatin/vehicle administration (day-1), and at again on day 3-5-7-10-14-21 day following oxaliplatin/vehicle injection.\n(§3) DF2726A (30 mg/kg) (5 mg/1 ml, 0.5 ml/os/rat) was dissolved in 10% SOLUTOL-HS15 and N-methylpyrrolidone (NMP) (SOLUTOL:NMP 2:1 w/v) and 90% PBS 1×, and was administered once a day from day −3 up to day 11 after paclitaxel administration. Anti-allodynic effects were assessed on day 5, 7, 10 and 14 after paclitaxel administration. Control animals received vehicle (10% SOLUTOL-NMP 2:1 w/v and PBS, 5 mg/1 ml; 0.5 m1/os/rat).\n(§4) DF1681B was administered by continuous subcutaneous infusion using the ALZET osmotic pumps Model 2ML2 (Charles River). In details, DF1681B (9.37 g) was dissolved in sterile saline (25 ml) at a concentration of 375 mg/ml and vortexed for 10 min. Osmotic pumps were implanted under anesthesia (100 mg/kg ketamine and 10 mg/kg xylazine i.p.) through a surgical incision between the scapulae. Pumps were implanted 3 days before first paclitaxel injection (day-3). Drug delivery was carried out continuously until day +11. Control animals received vehicle (sterile saline).\nTo assess the development of mechanical allodynia, sensitivity to tactile stimulation was measured using the Dynamic Plantar Aesthesiometer (DPA, Ugo Basile, Italy). Animals were placed in a chamber with a mesh metal floor covered by a plastic dome that enabled the animal to walk freely, but not to jump. The mechanical stimulus were then delivered in the mid-plantar skin of the hind paw. The cut-off was fixed at 50 g. […]\n(§5) All data were presented as the mean±SEM. The significance of differences between groups was determined by two-way analyses of variance (ANOVA) followed by Bonferroni post hoc tests for multiple comparisons. […]"}, "Male Wistar rats [2]": {"test_system": "Male Wistar rats", "assay": "Oxaliplatin-induced mechanical allodynia (Dynamic Plantar Aesthesiometer)", "format": "in vivo, rat", "settings": "oxaliplatin model, days 14 and 21", "procedure": "as §1\nas §2, with “Behavioral testing was performed before oxaliplatin/vehicle administration (day-1), and at again on day 3-5-7-10-14-21 day following oxaliplatin/vehicle injection.” left out\nTo assess the development of mechanical allodynia, sensitivity to tactile stimulation was measured using the Dynamic Plantar Aesthesiometer (DPA, Ugo Basile, Italy). […]\nas §5"}, "Male Wistar rats [3]": {"test_system": "Male Wistar rats", "assay": "Oxaliplatin-induced cold allodynia (acetone test)", "format": "in vivo, rat", "settings": "oxaliplatin model", "procedure": "as §1, §2\nDF2726A (30 mg/kg/os) was dissolved in PBS and it was administrated, for 24 consecutive days starting 3 days before oxaliplatin administration and continuing for other 21 days after the first administration of oxaliplatin. During this period the compound was given 2 h after oxaliplatin treatment. Since DF2726A is a sodium salt it was dissolved at the concentration of 16 mg/ml, to reach the active drug dose of 30 mg/kg.\nDF1681B was administered by continuous subcutaneous infusion using the ALZET osmotic pumps Model 2ML2 (Charles River). In order to obtain a rate of infusion of 8 mg/hr/kg as described by Cavalieri et al Int J Immunopathol Pharmacol, 2005, 18:475-86, DF1681B (9.37 g) was dissolved in sterile saline (25 ml) at a concentration of 375 mg/ml and vortexed for 10 min. Osmotic pumps were implanted under anesthesia (100 mg/kg ketamine and 10 mg/kg xylazine i.p.). Pumps were prepared according to Alzet instructions sheet. Briefly, pumps were filled with 2 ml of DF1681B solution or vehicle using sterile syringe. Finally, pumps were kept in water bath overnight in stove at 37° C. […]\n(§6) Cold sensitivity was measured as the number of foot withdrawal responses after application of acetone to the dorsal surface of the paw (2). […] Cold responses were measured on both paws before (day −1) and, then on 5, 7, 10 and 14 days after paclitaxel/vehicle administration or on days 0, 5, 7, 10, 14 and 21 after oxalipaltin/vehicle administration.\nas §5"}, "Male Wistar rats [4]": {"test_system": "Male Wistar rats", "assay": "Paclitaxel-induced cold allodynia (acetone test)", "format": "in vivo, rat", "settings": "paclitaxel model", "procedure": "as §1, §2, §3, §4\nas §6, with “(2). A drop of acetone was applied to the dorsal surface of paws with a syringe connected to a thin polyethylene tube while the rats was standing on a metal mesh.” for “(2).”\nas §5"}, "[5]": {"settings": "reparixin 10 μM in combination with paclitaxel 10 nM"}, "[6]": {"settings": "DF2726A 30 mg/kg os once a day from day -3 to day 11, day 14 (after end of treatment)"}, "[7]": {"settings": "DF2726A 30 mg/kg os once a day from day -3 to day 11, days 5 (P<0.05), 7 (P<0.001), 10 (P<0.001)"}, "[8]": {"settings": "DF1681B continuous subcutaneous infusion from day -3 to day +11, day 14"}},
  "data": [
    {"smiles": "CC(C)Cc1ccc([C@@H](C)C(=O)NS(C)(=O)=O)cc1", "note": "[reparixin, R-(−)-2-(4-isobutylphenyl)propionyl methanesulfonamide]", "values": [
      {"measurement": "acetylated α-tubulin (marker of stable microtubules), immunofluorescence", "setting": "F-11 cell line; [5]", "value": "acetylated α-tubulin appears similar to the control"},
      {"measurement": "increased neurite thickness induced by paclitaxel treatment", "setting": "F-11 cell line; [5]", "value": "able to abolish"},
      {"measurement": "α-tubulin and β-tubulin immunofluorescence (dimer formation)", "setting": "F-11 cell line; [5]", "value": "able to counteract the effect of paclitaxel alone on dimer formation"}
    ]},
    {"smiles": "CC(C)(C(=O)[O-])c1ccc(Nc2nc(C(F)(F)F)cs2)cc1.[Na+]", "note": "[DF2726A, 2-methyl-2-(4-{[4-(trifluoromethyl)-1,3-thiazol-2-yl]amino}phenyl)propanoic acid sodium salt]", "values": [
      {"measurement": "mechanical allodynia (paw withdrawal threshold) vs animals treated with vehicle", "setting": "Male Wistar rats [1]; [6]", "value": "No additional significant antiallodynic effect"},
      {"measurement": "mechanical allodynia (paw withdrawal threshold) vs animals treated with vehicle", "setting": "Male Wistar rats [1]; [7]", "value": "significant reduction of mechanical allodynia"},
      {"measurement": "mechanical allodynia (paw withdrawal threshold)", "setting": "Male Wistar rats [2]; DF2726A 30 mg/kg/os for 24 consecutive days from day -3", "value": "significant antiallodynic effect"},
      {"measurement": "cold allodynia (number of paw withdrawals)", "setting": "Male Wistar rats [3]; DF2726A 30 mg/kg/os for 24 consecutive days from day -3, day 3", "value": "did not show antiallodynic effect"},
      {"measurement": "cold allodynia (number of paw withdrawals)", "setting": "Male Wistar rats [3]; DF2726A 30 mg/kg/os for 24 consecutive days from day -3, days 5, 7, 10, 14, 21", "value": "significant reduction of cold allodynia"},
      {"measurement": "cold allodynia (number of paw withdrawals) vs animals treated with vehicle", "setting": "Male Wistar rats [4]; [6]", "value": "No additional antiallodynic effect"},
      {"measurement": "cold allodynia (number of paw withdrawals) vs animals treated with vehicle", "setting": "Male Wistar rats [4]; [7]", "value": "significant reduction of cold allodynia"}
    ]},
    {"smiles": "CC(=O)O[C@H]1C(=O)[C@@]2(C)[C@H]([C@H](OC(=O)c3ccccc3)[C@]3(O)C[C@H](OC(=O)[C@H](O)[C@@H](NC(=O)c4ccccc4)c4ccccc4)C(C)=C1C3(C)C)[C@]1(OC(C)=O)CO[C@@H]1C[C@@H]2O", "note": "[paclitaxel, reference compound]", "values": [
      {"measurement": "acetylated α-tubulin (marker of stable microtubules), immunofluorescence", "setting": "F-11 cell line; paclitaxel 10 nM alone", "value": "increased acetylated α-tubulin"},
      {"measurement": "fluorescence intensity of β-tubulin", "setting": "F-11 cell line; paclitaxel 10 nM alone", "value": "decrease of the fluorescence intensity of β-tubulin"},
      {"measurement": "neurite diameter", "setting": "F-11 cell line; paclitaxel 10 nM alone", "value": "increase of neurite diameter"}
    ]},
    {"smiles": "CC(C)Cc1ccc([C@@H](C)C(=O)NS(C)(=O)=O)cc1", "note": "[DF1681B, R(−)-2-(4-isobutylphenyl)propionyl methansulfonamide]", "values": [
      {"measurement": "mechanical allodynia (paw withdrawal threshold) vs animals treated with vehicle", "setting": "Male Wistar rats [1]; DF1681B continuous subcutaneous infusion by osmotic pump from day -3 to day +11, days 5 (P<0.01), 7 (P<0.001), 10 (P<0.001)", "value": "significant reduction of mechanical allodynia"},
      {"measurement": "mechanical allodynia (paw withdrawal threshold) vs animals treated with vehicle", "setting": "Male Wistar rats [1]; [8]", "value": "No additional antiallodynic effect"},
      {"measurement": "mechanical allodynia (paw withdrawal threshold)", "setting": "Male Wistar rats [2]; DF1681B continuous subcutaneous infusion 8 mg/hr/kg from day -3", "value": "significant antiallodynic effect"},
      {"measurement": "cold allodynia (number of paw withdrawals)", "setting": "Male Wistar rats [3]; DF1681B continuous subcutaneous infusion 8 mg/hr/kg from day -3, day 3", "value": "did not show antiallodynic effect"},
      {"measurement": "cold allodynia (number of paw withdrawals)", "setting": "Male Wistar rats [3]; DF1681B continuous subcutaneous infusion 8 mg/hr/kg from day -3, days 5, 7, 10, 14, 21", "value": "significant reduction of cold allodynia"},
      {"measurement": "cold allodynia (number of paw withdrawals) vs animals treated with vehicle", "setting": "Male Wistar rats [4]; [8]", "value": "No additional antiallodynic effect"},
      {"measurement": "cold allodynia (number of paw withdrawals) vs animals treated with vehicle", "setting": "Male Wistar rats [4]; DF1681B continuous subcutaneous infusion from day -3 to day +11, days 5 (P<0.01), 7 (P<0.001), 10 (P<0.001)", "value": "significant reduction of cold allodynia"}
    ]}
  ]
}
